Test results as given in patent publication US8388936B2, “In vivo mitochondrial labeling using positively-charged nitroxide enhanced and gadolinium chelate enhanced magnetic resonance imaging” (MCW Research Foundation, Inc., priority 2008, dated 2013).

Columns and labels:
[1] = test system: MCF7 cells; assay: MTT cell viability assay; format: cell-based; conditions: MCF7, 1-30 uM, 48 h
Description: (§1) Cell Culture. MCF7, MDA-MB-231 and MCF10-A cells were obtained from the American Type Culture Collection (ATCC) and cultured at 37° C. in humidified 95% air/5% CO2. MCF7 cells were maintained in MEM-alpha medium containing 10% FBS, L-glutamine (4 mM), penicillin (100 μg/ml), streptomycin (100 μg/ml), non-essential amino acids and sodium pyruvate. MDA-MB-23 were grown in Dulbecco's Modified Eagle's medium (DMEM) containing 10% FBS, L-glutamine (4 mM), penicillin (100 μg/ml), and streptomycin (100 μg/ml). MCF10-A cells were maintained in F-12 media supplemented with 20% FHS, hydrocortisone, cholera toxin, penicillin, streptomycin, and endothelial cell growth factor (ECGF). Typically, the day of the treatment, various concentrations of the nitroxides were added to the cells directly in the media.
(§2) The MTT assay (Sigma-Aldrich, Milwaukee, Wis.) was used to measure cell survival using quantitative colorimetry (λ=570 nm). This assay is based on the capacity of mitochondrial dehydrogenases to reduce MTT to form the insoluble formazan product. Cells were plated in 12-well plates and treated at pre-confluency with Mito-CP and CP (0-30 μM) in their respective media for 48 h. The culture media was removed after treatment, washed gently with DPBS and MTT (5 mg/ml in media) was added to each well, following incubation of the plates for 1 h at 37° C. The MTT solution was removed and the formazan product in each well was dissolved with dimethyl sulfoxide (DMSO). The optical density of each well was measured using an Agilent 8453 UV-Vis spectrometer at 570 nm.
(§3) MCF7, MDA-MB-231 and non-tumorigenic MCF10-A were grown to pre-confluency and treated with either Mito-CP or parent compound CP (1-30 uM) for 48 h and cell viability was measured using the MTT assay.

[2] = test system: MDA-MB-231 cells; assay: MTT cell viability assay; format: cell-based; conditions: MDA-MB-231, 1-30 uM, 48 h
Description: as §1, §2, §3

[3] = test system: non-tumorigenic MCF10-A breast epithelial cells; assay: MTT cell viability assay; format: cell-based; conditions: normal MCF10-A, 1-30 uM, 48 h
Description: as §1, §2, §3

[4] = T1 (longitudinal) relaxivity in buffered saline by spin echo inversion recovery MRI; format: physicochemical; conditions: buffered saline (DPBS)
Description: T1 Relaxivity at 1.5 Tesla. The longitudinal relaxivities of CP and Mito-CP were determined using a LX 1.5 T GE Scanner (GE, Waukesha, Wis.) using an 8-channel head rf coil. Solutions of CP and Mito-CP were diluted with Dulbecco's Phosphate Buffered Saline (DPBS) to the following concentrations: 5.0 μM, 10.0 μM, 20.0 μM, 50.0 μM, 100.0 μM, 200.0 μM, 300.0 μM, 500.0 μM, 700.0 μM, 1.0 mM, 2.0 mM, 5.0 mM, 10.0 mM, and 20.0 mM. Longitudinal relaxation times (T1) for each solution and relaxivities (R1) for CP and Mito-CP were calculated using images from a standard spin echo sequence (TE=14 msec, TR=10 sec) at various inversion times (TI=50, 125 msec incrementing by 125 msec to 3500 msec and 4000 msec).
T1 Relaxivity at 3.0 Tesla. The longitudinal relaxivities of CP and Mito-CP were determined using a Signa 3.0 T GE Scanner (GE, Waukesha, Wis.) using a custom rf quadrature coil. Solutions of CP and Mito-CP were diluted with Dulbecco's Phosphate Buffered Saline (DPBS) to the following concentrations: 1.0 μM, 10.0 μM, 100.0 μM, 1.0 mM, 10.0 mM, and 20.0 mM. Longitudinal relaxation times (T1) for each solution and relaxivities (R1) for CP and Mito-CP were calculated using images from a standard spin echo sequence (TE=9 msec, TR=15 sec) at various inversion times (TI=100 msec incrementing by 100 msec to 4000 msec and 50, 150, 1050, 1150 msec).
T1 Relaxivity at 9.4 Tesla. Both solutions were diluted with Dulbecco's Phosphate Buffered Saline (DPBS) to the following concentrations: […], 1.0 mM, 10.0 mM, and 20.0 mM. Longitudinal relaxation times (T1) for each solution and relaxivities (R1) for CP and Mito-CP were calculated using a standard spin echo sequence (TE=9 msec, TR=15,000 msec) at various inversion times (TI=100 msec incrementing by 100 msec to 4000 msec and 50, 150, 1050, 1150 msec).
The longitudinal relaxivities of other nitroxides have been approximate […]. In order to assess the longitudinal relaxivity of CP and Mito-CP, concentrations were prepared with the expectation of this relaxivity. Two separate initial solutions of CP and Mito-CP were prepared. Longitudinal relaxivities were determined for both CP and Mito-CP at three field strengths. Relaxivities were obtained from non-linear fits of standard spin echo inversion recovery images calculated using Matlab.

[5] = test system: isolated rabbit heart mitochondria; assay: In vitro localization in isolated mitochondria, MRI T1 analysis; conditions: for T1 / enhancement of treated mitochondria (uptake): 10 uM, 37° C. 10 minutes, 3.0 T, compared to mitochondria alone
Description: The experiment was carried out on a Signa 3.0 T GE scanner (GE, Waukesha, Wis.) using a custom quadrature rf coil with a G10 fiberglass vial rack. Rabbit heart mitochondria were isolated. For verification of MR detectable mitochondrial accumulation of Mito-CP, isolated rabbit mitochondria were separated into […] eppendorf tubes each containing 40 μL of 15 mg/ml mitochondria. Six eppendorf tubes were prepared as indicated in Table 1 below (1-6), and three additional eppendorf tubes were prepared from the supernatant of tubes 4-6 (4b-6b): Note that succinate is needed to activate the mitochondrial respiratory chain, necessary for normal function. All tubes were incubated at 37° C. for 10 minutes. Immediately following incubation, all tubes were centrifuged at 1,000×g for 4 minutes at 4° C. The supernatant was then transferred into another eppendorf tube. The mitochondria in tubes 4-6 were re-suspended with the addition of […] of DPBS and allowed to settle naturally. […] To determine the specificity that Mito-CP has toward mitochondria, the compound carboxy-proxyl (CP) was used for comparison. CP is a 5-member nitroxide ring, depicted in FIG. 1, without the ten chain linking carbons and the triphenylphosphonium. […] These properties make CP an ideal control for specificity of Mito-CP toward mitochondria.

[6] = for EPR signal of blood following treatment with ferricyanide: rat blood from catheter after dynamic EPR spectra
[7] = cited from earlier work

Compound	induction of cancer cell apoptosis / cell viability (MTT) [1]	induction of cancer cell apoptosis / cell viability (MTT) [2]	induction of apoptosis / cell viability (MTT) [3]	longitudinal relaxivity R1 ([4]; 3.0 T) [mM⁻¹ s⁻¹]	T1 / enhancement of treated mitochondria (uptake) [5]	EPR signal of blood following treatment with ferricyanide [6]	permeability to lipid membranes [7]	longitudinal relaxivity R1 ([4]; 1.5 T) [mM⁻¹ s⁻¹]	longitudinal relaxivity R1 ([4]; 9.4 T) [mM⁻¹ s⁻¹]	increase in concentration within the mitochondria compared to the incubating solution ([5]; 10 uM incubating solution) [fold]	estimated mitochondrial associated tissue concentration ([5]; 10 uM incubating solution, calculated from relaxivity and T1) [mM]	time to elimination/reduction from the blood ([6]; rat, following bolus injection) [min]	in vivo half-life in blood ([6]; single rat, tail-vein bolus, monoexponential fit after peak)
CC1(C)CC(C(=O)O)C(C)(C)N1[O] (stereo not shown) [CP, carboxy-proxyl, reference compound]	did not	did not	no influence inducing apoptosis	0.1546 ± 0.00567	did not enhance considerably	not back to its initial level	impermeable to lipid membranes	–	–	–	–	–	–
(11-(3-carboxy-2,2,5,5-tetramethyl-1-pyrrolidinyloxy)-undecyl)-triphenylphosphonium bromide [Mito-CP]	induced cancer cell apoptosis	induced cancer cell apoptosis	no influence inducing apoptosis	0.2322 ± 0.0151	shortened T1, indicating uptake	signal was recovered	–	0.1643 ± 0.01314	0.2083 ± 0.0431	≥ 140	0.143	≤ 30	approximately 2 minutes
